Results published in patent US20160256560A1, “Environmentally Sensitive Compositions” (priority 2010, published 2016).
Where two headings read alike, the source gives them in different places. *1 amine or outer side, *2 acyl side, *3 side chain or, on linkers, in order; H or OH if unused. Where a SMILES comes first, the peptide text is derived from it. Bridges are numbered along the chain shown (N, C = ends). Where no end group is shown, it is not given here. [ ]: non-standard residue; d: D form. ξ: configuration not given here. ξTrp(2-yl) = O=C(C(Cc1c([*:3])[nH]c2ccccc12)N[*:1])[*:2]; X1 = CC(O)(CO)CC(N[*:1])C(=O)[*:2]; Hyp = O=C(O)[CH]1C[CH](O)CN1

Columns and labels:
[1] = Solubility / aggregation of pHLIP variants at pH 8
HeLa cells [2] = type: cell-based, human; details: 1 uM, pH 6.2, 1.5 h
[3] = type: physicochemical; details: absorbance at 300 nm
Procedure: Peptides were labeled at the C-terminal Cys residues using the membrane-impermeable compound maleimide-PEG2-biotin (Thermo Scientific), which has a long polar spacer arm of 29.1 Å that allows adequate biotin binding to avidin. The synthesis reaction was performed in 10 mM phosphate buffer, pH 7.5 (overnight incubation at 4° C.). Reaction products were purified by HPLC, and the mass of the biotin-labeled peptides checked by MALDI-TOF mass spectrometry. The octanol/water partition coefficient of maleimide-PEG2-biotin was determined experimentally by measuring the absorbance at 300 nm in the aqueous and octanol (previously pre-equilibrated with water) phases after a 2 h vortexing. A log P value of −1.07±0.02 was obtained. […] (Kuyper et al., 2006, J. Am. Chem. Soc. 128(10), 3233-40).

JC cells = details: pH 6.1
HeLa cells [4] = test system: HeLa cells
[5] = type: in vitro ADME; details: pH 6.2
physchem [6] = assay: physchem
actin filaments = details: read-out: Kd, binding to actin filaments; cited from earlier work
physchem [7] = assay: physchem; remark: listed apart in the source
tumor = details: in vivo
[8] = Analytical ultracentrifugation, sedimentation velocity; type: physicochemical; details: 7 μM, pH 8
GFP fluorescent tumors = details: mouse, in vivo
[9] = Stopped-flow fluorescence and CD kinetics of insertion/folding and exit/unfolding; type: physicochemical
HeLa cells [10] = type: cell-based, human
[11] = mouse, in vivo
[12] = target: Rabbit muscle actin, polymerized filamentous actin (F-actin) (rabbit) (UniProt P68135); assay: fluorescence anisotropy (ex 570 nm / em 610 nm), separate titration of phallTxR by F-actin without competitor; value for fully bound tracer
[13] = target: Rabbit muscle actin, polymerized filamentous actin (F-actin) (rabbit) (UniProt P68135); assay: fluorescence anisotropy (ex 570 nm / em 610 nm), titration of phallTxR by F-actin; value for unbound tracer
[14] = Membrane affinity and insertion kinetics of variants Var1-16; type: physicochemical; details: relative to WT pHLIP
[15] = in vivo; cited from earlier work
HeLa tumors = details: mouse, in vivo

In the case of `CC[C@H](C)[C@H](NC(=O)[C@@H]1CCCN1C(=O)[C@H](CC(N)=O)NC(=O)[C@H](CCC(N)=O)NC(=O)[C@H](CCC(=O)O)NC(=O)CNC(=O)CN)C(=O)N[C@@H](Cc1ccc(O)cc1)C(=O)N[C@@H](Cc1c[nH]c2ccccc12)C(=O)N[C@@H](C)C(=O)N[C@@H](CCC(N)=O)C(=O)N[C@@H](Cc1ccc(O)cc1)C(=O)N[C@@H](C)C(=O)N[C@@H](CC(=O)O)C(=O)N[C@@H](Cc1c[nH]c2ccccc12)C(=O)N[C@@H](CC(C)C)C(=O)N[C@@H](Cc1ccccc1)C(=O)N[C@H](C(=O)N[C@H](C(=O)N1CCC[C@H]1C(=O)N[C@@H](CC(C)C)C(=O)N[C@@H](CC(C)C)C(=O)N[C@@H](CC(C)C)C(=O)N[C@@H](CC(C)C)C(=O)N[C@@H](CC(=O)O)C(=O)N[C@@H](CC(C)C)C(=O)N[C@@H](C)C(=O)N[C@@H](CC(C)C)C(=O)N[C@@H](CC(C)C)C(=O)N[C@H](C(=O)N[C@@H](CC(=O)O)C(=O)N[C@@H](C)C(=O)N[C@@H](CC(=O)O)C(=O)N[C@@H](CCC(=O)O)C(=O)NCC(=O)N[C@H](C(=O)N[C@@H](CS)C(=O)NCC(=O)O)[C@@H](C)O)C(C)C)[C@@H](C)O)[C@@H](C)O` [R11Q], the “Notes: solubility” value [1] is reported as “Has better solubility”.

For `CC[C@H](C)[C@@H]1NC(=O)CNC(=O)[C@@H]2Cc3c([nH]c4cc(O)ccc34)[S@+]([O-])C[C@H](NC(=O)CNC1=O)C(=O)N[C@@H](CC(N)=O)C(=O)N1C[C@H](O)C[C@H]1C(=O)N[C@@H]([C@@H](C)[C@@H](O)CO)C(=O)N2` [amanitin, α-amanitin], the “cell growth after treatment (ECIS)” value (HeLa cells [2]) was “continue to grow”.

For `O=C(CCCC[C@@H]1SC[C@@H]2NC(=O)N[C@@H]21)NCCOCCOCCNC(=O)CCN1C(=O)C=CC1=O` [maleimide-PEG2-biotin], the “log P (octanol/water)” value [3] was −1.07±0.02.

With `CC[C@H](C)[C@H](NC(=O)[C@@H]1CCCN1C(=O)[C@H](CC(N)=O)NC(=O)[C@H](CCC(N)=O)NC(=O)[C@H](CCC(=O)O)NC(=O)[C@H](C)NC(=O)[C@H](C)NC(C)=O)C(=O)N[C@@H](Cc1ccc(O)cc1)C(=O)N[C@@H](Cc1c[nH]c2ccccc12)C(=O)N[C@@H](C)C(=O)N[C@@H](CCCNC(=N)N)C(=O)N[C@@H](Cc1ccc(O)cc1)C(=O)N[C@@H](C)C(=O)N[C@@H](CC(=O)O)C(=O)N[C@@H](Cc1c[nH]c2ccccc12)C(=O)N[C@@H](CC(C)C)C(=O)N[C@@H](Cc1ccccc1)C(=O)N[C@H](C(=O)N[C@H](C(=O)N1CCC[C@H]1C(=O)N[C@@H](CC(C)C)C(=O)N[C@@H](CC(C)C)C(=O)N[C@@H](CC(C)C)C(=O)N[C@@H](CC(C)C)C(=O)N[C@@H](CC(=O)O)C(=O)N[C@@H](CC(C)C)C(=O)N[C@@H](C)C(=O)N[C@@H](CC(C)C)C(=O)N[C@@H](CC(C)C)C(=O)N[C@H](C(=O)N[C@@H](CC(=O)O)C(=O)N[C@@H](C)C(=O)N[C@@H](CC(=O)O)C(=O)N[C@@H](CCC(=O)O)C(=O)NCC(=O)N[C@H](C(=O)N[C@@H](CCCCNC(=O)c1ccc(-c2c3ccc(N(C)C)cc3[o+]c3cc(N(C)C)ccc23)c(C(=O)[O-])c1)C(=O)N[C@@H](CSSCCC(=O)NC[C@](C)(O)C[C@@H]1NC(=O)[C@@H]2Cc3c([nH]c4ccccc34)SC[C@H](NC(=O)[C@@H]([C@H](C)O)NC(=O)[C@H](C)NC1=O)C(=O)N1C[C@@H](O)C[C@H]1C(=O)N[C@@H](C)C(=O)N2)C(=O)NCC(=O)O)[C@@H](C)O)C(C)C)[C@@H](C)O)[C@@H](C)O` [pHLIP-K(rho)C(aph)] the “inhibition of M4A4 proliferation” value (M4A4 cells; pH 6.2) was 92%, the “inhibition of JC growth” value (JC cells) was 78% and the “effect on cell growth” value (HeLa cells [4]; pH 7.4) was “did not have any effect on cell growth”. For the same molecule, the “decomposition during cell incubation (HPLC)” value [5] was “no detectable decomposition”, the multinucleation (HeLa or M4A4 cells) was “became multinucleated” and the “cytoskeletal immobilization on trypsinization / cytotoxic morphology” value (HeLa or M4A4 cells; pH 6.1) was “exhibited a reduced ability to contract”.

In the case of `CC1NC(=O)C(CC(C)(O)CO)NC(=O)C2Cc3c([nH]c4ccccc34)SCC(NC(=O)C(C(C)O)NC1=O)C(=O)N1CC(O)CC1C(=O)NC(C)C(=O)N2` (stereo not drawn) [phalloidin] (cyclo([X1]ATC[Hyp]A[ξTrp(2-yl)]); thioether 4-7; configuration not given here), the “inhibitory effect on M4A4 proliferation” value (M4A4 cells) is reported as “no inhibitory effect”, the logP (physchem [6]) is reported as -1.5 and the “inhibitory effect on HeLa proliferation” value (HeLa cells [4]) is reported as “no inhibitory effect”. The Kd (actin filaments) was under 40 nM.

With “AAEQNPIYWARYADWLFTTGLLLLDLALLVDADEGT [P20G]” the pKa (physchem [7]) was about 6.7 and the “Findings: biodistribution / blood clearance” value (tumor) was “Goes the liver”.

With “H-GGEQNPIYWARYADWLFTTPLLLLDLALLVDADEGT-OH [pHLIP]” the “inhibitory effect on HeLa proliferation” value (HeLa cells [4]) was “no inhibition of proliferation was observed”, the “oligomer share of total population” value [8] was about 6% and the “toxic effects in mice” value (GFP fluorescent tumors) was “did not induce any toxic effects”. For the same molecule, the “interfacial helix formation time” value [9] was 0.1 s, the “recruitment of anti-DNP antibodies, pH 6.2 versus pH 7.4 (times more)” value (HeLa cells [10]) was “not capable of significantly recruiting” and the adverse effects [11] was “did not show any adverse effects”. The “pH range over which titration occurs” value was about 1 pH unit.

In the case of Texas Red-X phalloidin (peptide), the fluorescence anisotropy [12] is reported as 0.24 and the fluorescence anisotropy [13] is reported as 0.04.

With “WT-reverse (TEDADVLLALDLLLLPTTFLWDAYRAWYPNQECA)” the “Findings: Inserts into membrane, times faster than WT” value [14] was “Inserts into membrane 10 times”.

For gold nanoparticles, the LD50 [15] is given as “approximately 3.2 g Au kg^−1”, the “amount of gold, Bladder” value (HeLa tumors) is given as 0.010 ± 0.094 % of injected dose per gram of tissue and the “amount of gold, Blood” value (HeLa tumors) is given as 0.028 ± 0.028 % of injected dose per gram of tissue. For the same molecule, the “amount of gold, Heart” value (HeLa tumors) was 0.075 ± 0.010 % of injected dose per gram of tissue, the “amount of gold, Intestine” value (HeLa tumors) was 0.034 ± 0.021 % of injected dose per gram of tissue and the “amount of gold, Kidney” value (HeLa tumors) was 1.561 ± 0.098 % of injected dose per gram of tissue. For the same molecule, the “amount of gold, Liver” value (HeLa tumors) was 0.082 ± 0.082 % of injected dose per gram of tissue, the “amount of gold, Lung” value (HeLa tumors) was 0.119 ± 0.025 % of injected dose per gram of tissue and the “amount of gold, Muscle” value (HeLa tumors) was 1.836 ± 0.071 % of injected dose per gram of tissue. For the same molecule, the “amount of gold, Skin” value (HeLa tumors) was 0.129 ± 0.041 % of injected dose per gram of tissue, the “amount of gold, Spleen” value (HeLa tumors) was 0.097 ± 0.039 % of injected dose per gram of tissue and the “amount of gold, Stomach” value (HeLa tumors) was 0.012-30.011 % of injected dose per gram of tissue. The “amount of gold, Bladder” value (HeLa tumors; iv) was 0.050 ± 0.050 % of injected dose per gram of tissue, the “amount of gold, Blood” value (HeLa tumors; iv) was 0.091 ± 0.020 % of injected dose per gram of tissue and the “amount of gold, Heart” value (HeLa tumors; iv) was 0.069 ± 0.004 % of injected dose per gram of tissue. The “amount of gold, Intestine” value (HeLa tumors; iv) was 0.073 ± 0.002 % of injected dose per gram of tissue, the “amount of gold, Kidney” value (HeLa tumors; iv) was 1.206 ± 0.078 % of injected dose per gram of tissue and the “amount of gold, Liver” value (HeLa tumors; iv) was 0.392 ± 0.031 % of injected dose per gram of tissue. For the same molecule, the “amount of gold, Lung” value (HeLa tumors; iv) was 0.128 ± 0.000 % of injected dose per gram of tissue, the “amount of gold, Muscle” value (HeLa tumors; iv) was 0.053 ± 0.005 % of injected dose per gram of tissue and the “amount of gold, Skin” value (HeLa tumors; iv) was 0.204 ± 0.029 % of injected dose per gram of tissue. The “amount of gold, Spleen” value (HeLa tumors; iv) was 0.089 ± 0.045 % of injected dose per gram of tissue and the “amount of gold, Stomach” value (HeLa tumors; iv) was 0.081 ± 0.000 % of injected dose per gram of tissue.
